Target: T1, human S1P1 receptor (Homo sapiens, UniProt P21453)
T1 construct: expressed in transfected cells; membranes were used
Test: GTP γ35S binding assay for S1P1 activity
Type: biochemical
Conditions: activity potency from GTP γ35S binding; membrane protein from cells stably expressing the S1P1 receptor; 30 min at 25° C.
Description: Compounds were synthesized and tested for S1P1 activity using the GTP γ^35S binding assay. These compounds may be assessed for their ability to activate or block activation of the human S1P1 receptor in cells stably expressing the S1P1 receptor.
GTP γ^35S binding was measured in the medium containing (mM) HEPES 25, pH 7.4, MgCl2 10, NaCl 100, dithitothreitol 0.5, digitonin 0.003%, 0.2 nM GTP γ^35S, and 5 μg membrane protein in a volume of 150 μl. Test compounds were included in the concentration range from 0.08 to 5,000 nM unless indicated otherwise. Membranes were incubated with 100 μM 5′-adenylylimmidodiphosphate for 30 min, and subsequently with 10 μM GDP for 10 min on ice. Drug solutions and membrane were mixed, and then reactions were initiated by adding GTP γ^35S and continued for 30 min at 25° C. Reaction mixtures were filtered over Whatman GF/B filters under vacuum, and washed three times with 3 mL of ice-cold buffer (HEPES 25, pH7.4, MgCl2 10 and NaCl 100). Filters were dried and mixed with scintillant, and counted for ^35S activity using a β-counter. Agonist-induced GTP γ^35S binding was obtained by subtracting that in the absence of agonist. Binding data were analyzed using a non-linear regression method. In case of antagonist assay, the reaction mixture contained 10 nM S1P in the presence of test antagonist at concentrations ranging from 0.08 to 5000 nM.

T1 sequence (P21453 whole entry): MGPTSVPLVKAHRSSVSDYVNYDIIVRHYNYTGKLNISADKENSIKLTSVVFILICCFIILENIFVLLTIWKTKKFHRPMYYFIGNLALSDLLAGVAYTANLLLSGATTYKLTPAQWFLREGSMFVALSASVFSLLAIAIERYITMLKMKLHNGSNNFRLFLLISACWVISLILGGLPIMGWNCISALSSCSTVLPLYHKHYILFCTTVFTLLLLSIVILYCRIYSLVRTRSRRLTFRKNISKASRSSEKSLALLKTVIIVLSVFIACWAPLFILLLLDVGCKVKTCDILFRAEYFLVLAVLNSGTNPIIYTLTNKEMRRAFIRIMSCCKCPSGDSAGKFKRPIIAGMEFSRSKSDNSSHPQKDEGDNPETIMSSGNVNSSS

Compound | EC50 [nM]
Cc1ccc(CC(c2cccc(Cl)c2)c2nc(-c3ccc(C(=O)NCCC(=O)O)cc3)no2)cc1C (stereo not shown) [Compound 9, 3-[(4-{5-[1-(3-chlorophenyl)-2-(3,4-dimethylphenyl)ethyl]-1,2,4-oxadiazol-3-yl}benzoyl)amino]propanoic acid] | 911
Cc1ccc(NC(c2cccc(Cl)c2)c2nc(-c3ccc(CNCCC(=O)O)cc3)no2)cc1C (stereo not shown) [3-{[4-(5-{(3-chlorophenyl)[(3,4-dimethylphenyl)amino]methyl}-1,2,4-oxadiazol-3-yl)benzyl]amino}propanoic acid] | 1.5
Cc1ccc(CC(c2cccc(C(F)(F)F)c2)c2nc(-c3ccc(CNCCC(=O)O)cc3)no2)cc1C (stereo not shown) [Compound 12, 3-{[4-(5-{2-(3,4-dimethylphenyl)-1-[3-(trifluoromethyl)phenyl]ethyl}-1,2,4-oxadiazol-3-yl)benzyl]amino}propanoic acid] | 336
Cc1ccc(CC(c2cccc(F)c2)c2nc(-c3ccc(CNCCCP(=O)(O)O)cc3)no2)cc1C (stereo not shown) [Compound 4, {3-[(4-{5-[2-(3,4-dimethylphenyl)-1-(3-fluorophenyl)ethyl]-1,2,4-oxadiazol-3-yl}benzyl)amino]propyl}phosphonic acid] | 4.04
Cc1ccc(CC(c2ccc(Cl)cc2)c2nc(-c3ccc(CCC(=O)O)cc3C)no2)cc1C (stereo not shown) [Compound 7, 3-(4-{5-[1-(4-chlorophenyl)-2-(3,4-dimethylphenyl)ethyl]-1,2,4-oxadiazol-3-yl}-3-methylphenyl)propanoic acid] | 89.3
Cc1ccc(CC(c2cccc(Cl)c2)c2nc(-c3ccc(CNCCC(=O)O)cc3)no2)cc1C (stereo not shown) [Compound 1, 3-[(4-{5-[1-(3-chlorophenyl)-2-(3,4-dimethylphenyl)ethyl]-1,2,4-oxadiazol-3-yl}benzyl)amino]propanoic acid] | 312
Cc1ccc(CC(c2cccc(Cl)c2)c2nc(-c3ccc(CCC(=O)O)cc3C)no2)cc1C (stereo not shown) [Compound 6, 3-(4-{5-[1-(3-chlorophenyl)-2-(3,4-dimethylphenyl)ethyl]-1,2,4-oxadiazol-3-yl}-3-methylphenyl)propanoic acid] | 1060
Cc1ccc(CC(c2cc(F)cc(F)c2)c2nc(-c3ccc(CNCCC(=O)O)cc3)no2)cc1C (stereo not shown) [Compound 10, 3-[(4-{5-[1-(3,5-difluorophenyl)-2-(3,4-dimethylphenyl)ethyl]-1,2,4-oxadiazol-3-yl}benzyl)amino]propanoic acid] | 1100

Results, then the compound that gave them:

EC50 [nM] | Compound
535 | Cc1cc(C)cc(C(Cc2ccc(C)c(C)c2)c2nc(-c3ccc(CNCCC(=O)O)cc3)no2)c1 (stereo not shown) [Compound 13, 3-[(4-{5-[2-(3,4-dimethylphenyl)-1-(3,5-dimethylphenyl)ethyl]-1,2,4-oxadiazol-3-yl}benzyl)amino]propanoic acid]
17.1 | Cc1cccc(CC(c2cccc(Cl)c2)c2nc(-c3ccc(CCC(=O)O)cc3C)no2)c1 (stereo not shown) [Compound 8, 3-(4-{5-[1-(3-chlorophenyl)-2-(3-methylphenyl)ethyl]-1,2,4-oxadiazol-3-yl}-3-methylphenyl)propanoic acid]
3.77 | Cc1ccc(CC(c2cccc(Cl)c2)c2nc(-c3ccc(CNCCCP(=O)(O)O)cc3)no2)cc1C (stereo not shown) [Compound 2, {3-[(4-{5-[1-(3-chlorophenyl)-2-(3,4-dimethylphenyl)ethyl]-1,2,4-oxadiazol-3-yl}benzyl)amino]propyl}phosphonic acid]
5.27 | Cc1ccc(CC(c2cc(F)cc(F)c2)c2nc(-c3ccc(CNCCCP(=O)(O)O)cc3)no2)cc1C (stereo not shown) [Compound 11, {3-[(4-{5-[1-(3,5-difluorophenyl)-2-(3,4-dimethylphenyl)ethyl]-1,2,4-oxadiazol-3-yl}benzyl)amino]propyl}phosphonic acid]
598 | Cc1ccc(CC(c2cccc(F)c2)c2nc(-c3ccc(CNCCC(=O)O)cc3)no2)cc1C (stereo not shown) [Compound 3, 3-[(4-{5-[2-(3,4-dimethylphenyl)-1-(3-fluorophenyl)ethyl]-1,2,4-oxadiazol-3-yl}benzyl)amino]propanoic acid]

Reference: patent US8497254B2, “Oxadiazole derivatives as sphingosine 1-phosphate (S1P) receptor modulators” (Allergan, Inc., priority 2010, dated 2013)
